Source: US12589143B2, “Human anti-PD-L1 peptide vaccines and methods of their use” (priority 2019, dated 2026)
Several values for one entry are separate records, joined by “and”; a condition that tells them apart may be missing. Identical values can stand only once. Where no end group is shown, it is not given here.

System: MVF-PD-L1 peptide immunogen
Assay: Immunogenicity in Balb/c mice, experiment 1 (CT26 WT): ELISA of sera vs each MVF-PD-L1 peptide immunogen
Type: in vivo
Settings: for Immunogenicity (titers) 1′ Conc. 1:: Balb/c mice
Procedure: Immunogenicity of MVF-PD-L1 B-cell epitopes. New Zealand White rabbits were immunized with 1 mg of each MVF-peptide immunogens dissolved in dd H2O emulsified (1:1) in Montanide ISA 720 vehicle (Seppic) with 333 μg of N-acetylglucosamine-3yl-acetyl-1-alanyl-d-isoglutamine (nor-MDP). Rabbits were boosted with the same doses at 3-week's intervals. Blood was collected via the central auricular artery in rabbits. Blood was collected weekly (1Y+3, 2Y+1, 2Y+2,2Y+3, 3Y+1, 3Y+2 and sera tested for antibody titers by ELISA using the immunogens MVF-PD-L1 peptides. Sera (terminal) from rabbit (3Y+3) immunized with MVF-PD-1 peptide immunogens were tested individually versus the immunogen by ELISA. 200 ng/well peptide were used in duplicates to coat the ELISA plates. Titers are defined as the highest dilution of sera with an absorbance value of 0.2 after subtracting the blank.
FIGS. 5A, 5B, 5C, and 5D show the experimental scheme to test the immunization with PD-L1 in Balb/c mice. […] Balb/c mice 6-8 weeks old, were immunized with MVF-peptide immunogens emulsified in ISA 720 with nor-MDP three times and three weeks apart. Mice were immunized with MVF-PD-L1 vaccine constructs [PD-L1(36-53), PD-L1(50-67), PD-L1(95-112), PD-L1(130-147)] prior to tumor challenge. Blood was collected weekly and sera tested for antibody titers by ELISA. Two weeks after the third immunization (3Y), the mice were engrafted with CT26 WT tumor cells 10^5 per mouse Control mice were treated twice weekly with PBS as negative control and twice weekly with anti-mPD-L1 mAb (10F.9G2) as positive control starting 2 days after tumor challenge. Tumor growths were observed twice weekly and measured by calipers.
Immunogenicity of MVF-PD-L1 peptides in BALB/c mice immunized with various peptide constructs. Sera collected weekly were tittered against each individual MVF-PD-L1 peptide immunogen. The Pink bar refers to titers versus PD-L1 130 and the red bar refers to titers versus PD-1 (92-110).
In order to verify the efficacy of the PD-L1 epitope vaccines in vivo in the CT26 carcinoma cell line, Balb/c mice (10 mice/group) were immunized with 100 μg each of MVF-PD-L1 (36-53), MVF-PD-L1 (50-67), MVF-PD-L1 (95-112) and MVF-PD-L1 (130-147) emulsified with nor-MDP and Montanide 720 (1:1 ratio) SCHEME 1A (FIG. 5A). As detailed in SCHEME 1A-D (FIGS. 5A, 5B, 5C, and 5D), mice were immunized 3 times at 3 weeks intervals. […] All PD-L1 epitopes elicited high titers of PD-L1 anti-peptide antibodies by ELISA. […] We also investigated the combination of PD-1(92-110) with PD-L1-130-147.
For each peptide, vaccine antibodies were raised in New Zealand white rabbits, purchased from Charles River Laboratories (Wilmington, MA, USA). Rabbits were immunized with 1 mg of MVF chimeric peptide emulsified in Montanide ISA 720 (Seppic, Paris, France) and boosted 3 times at three week intervals. For mouse experiments, mice, 6-8 weeks old, were immunized with 0.1 mg of peptide emulsified in ISA720 (1:1 ratio). Mice were boosted with the respective doses at 3-week intervals. Blood was then collected and sera were tested for antibody titers. Sera were collected weekly and peptide vaccine antibodies were purified by affinity chromatography using a protein A/G column and the concentration was measured using Spectrophometer. All experiments were performed in accordance with the U.S. Public Health Service Policy on Humane Care and Use of Laboratory animals and approved by the Ohio State University Institutional Animals Care and Use Committee, detailed in the accepted protocol.
6-8 weeks old BALB/c mice (Charles River, Wilmington, MA) were used as standard animal models. Mouse CT26 colon carcinoma cell line was purchased from American Type Culture Collection Cells and were regularly cultured in RPMI1640 medium containing 10% FBS. CT26/HER2 cells were kindly provided by M. Penichet. Vaccines were dissolved in sterile water and emulsified in Montanide ISA 720 (1:1). […]

KLLSLIKGVIVHRLEGVEGPSLLIVYWEMEDKNIIQFVHG (KLLSLIKGVIVHRLEGVEGPSLLIVYWEMEDKNIIQFVHG-NH2) [PD-L1(36)]
Immunogenicity (titers) 1′ Conc. 1: (bleed 1Y + 3): 400 | Immunogenicity (titers) 1′ Conc. 1: (bleed 2Y + 1): 1600 | Immunogenicity (titers) 1′ Conc. 1: (bleed 2Y + 2): 6400 | Immunogenicity (titers) 1′ Conc. 1: (bleed 2Y + 3): 16000 | Immunogenicity (titers) 1′ Conc. 1: (bleed 3Y + 1): 16000 | Immunogenicity (titers) 1′ Conc. 1: (bleed 3Y + 2): 16000 | Immunogenicity (titers) 1′ Conc. 1: (bleed 3Y + 3): 16000 | ELISA absorbance of sera (bleed 1Y + 3 (1to100), dilution 100): 0.598 and 0.583 | ELISA absorbance of sera (bleed 1Y + 3 (1to100), dilution 200): 0.352 and 0.300 | ELISA absorbance of sera (bleed 1Y + 3 (1to100), dilution 400): 0.212 and 0.200 | ELISA absorbance of sera (bleed 1Y + 3 (1to100), dilution 800): 0.117 and 0.088 | ELISA absorbance of sera (bleed 1Y + 3 (1to100), dilution 1,600): 0.063 and 0.046 | ELISA absorbance of sera (bleed 1Y + 3 (1to100), dilution 3,200): 0.032 and 0.027 | ELISA absorbance of sera (bleed 1Y + 3 (1to100), dilution 6,400): 0.014 and 0.010 | ELISA absorbance of sera (bleed 1Y + 3 (1to100), dilution 12,800): 0.010 and 0.006 | ELISA absorbance of sera (bleed 2Y + 1 (1to100), dilution 100): 1.031 and 0.901 | ELISA absorbance of sera (bleed 2Y + 1 (1to100), dilution 200): 0.815 and 0.784 | ELISA absorbance of sera (bleed 2Y + 1 (1to100), dilution 400): 0.601 and 0.591 | ELISA absorbance of sera (bleed 2Y + 1 (1to100), dilution 800): 0.408 and 0.394 | ELISA absorbance of sera (bleed 2Y + 1 (1to100), dilution 1,600): 0.273 and 0.203 | ELISA absorbance of sera (bleed 2Y + 1 (1to100), dilution 3,200): 0.163 and 0.116 | ELISA absorbance of sera (bleed 2Y + 1 (1to100), dilution 6,400): 0.090 and 0.067 | ELISA absorbance of sera (bleed 2Y + 1 (1to100), dilution 12,800): 0.049 and 0.031 | ELISA absorbance of sera (bleed 2Y + 2 (1to100), dilution 100): 1.281 and 1.251 | ELISA absorbance of sera (bleed 2Y + 2 (1to100), dilution 200): 1.162 and 1.137 | ELISA absorbance of sera (bleed 2Y + 2 (1to100), dilution 400): 1.033 and 1.019 | ELISA absorbance of sera (bleed 2Y + 2 (1to100), dilution 800): 0.975 and 0.820 | ELISA absorbance of sera (bleed 2Y + 2 (1to100), dilution 1,600): 0.691 and 0.602 | ELISA absorbance of sera (bleed 2Y + 2 (1to100), dilution 3,200): 0.460 and 0.389 | ELISA absorbance of sera (bleed 2Y + 2 (1to100), dilution 6,400): 0.299 and 0.248 | ELISA absorbance of sera (bleed 2Y + 3 (1to1k), dilution 100): 0.855 and 0.817 | ELISA absorbance of sera (bleed 2Y + 3 (1to1k), dilution 200): 0.695 and 0.612 | ELISA absorbance of sera (bleed 2Y + 3 (1to1k), dilution 400): 0.530 and 0.500 | ELISA absorbance of sera (bleed 2Y + 3 (1to1k), dilution 800): 0.393 and 0.359 | ELISA absorbance of sera (bleed 2Y + 3 (1to1k), dilution 1,600): 0.273 and 0.257 | ELISA absorbance of sera (bleed 2Y + 3 (1to1k), dilution 3,200): 0.155 and 0.146 | ELISA absorbance of sera (bleed 2Y + 3 (1to1k), dilution 6,400): 0.074 and 0.049 | ELISA absorbance of sera (bleed 3Y + 1 (1to1k), dilution 100): 0.966 and 0.923 | ELISA absorbance of sera (bleed 3Y + 1 (1to1k), dilution 200): 0.785 and 0.691 | ELISA absorbance of sera (bleed 3Y + 1 (1to1k), dilution 400): 0.599 and 0.565 | ELISA absorbance of sera (bleed 3Y + 1 (1to1k), dilution 800): 0.444 and 0.406 | ELISA absorbance of sera (bleed 3Y + 1 (1to1k), dilution 1,600): 0.308 and 0.291 | ELISA absorbance of sera (bleed 3Y + 1 (1to1k), dilution 3,200): 0.175 and 0.165 | ELISA absorbance of sera (bleed 3Y + 1 (1to1k), dilution 6,400): 0.084 and 0.056 | ELISA absorbance of sera (bleed 3Y + 2 (1to1k), dilution 100): 1.202 and 1.225 | ELISA absorbance of sera (bleed 3Y + 2 (1to1k), dilution 200): 0.934 and 0.949 | ELISA absorbance of sera (bleed 3Y + 2 (1to1k), dilution 400): 0.658 and 0.662 | ELISA absorbance of sera (bleed 3Y + 2 (1to1k), dilution 800): 0.405 and 0.424 | ELISA absorbance of sera (bleed 3Y + 2 (1to1k), dilution 1,600): 0.240 and 0.228 | ELISA absorbance of sera (bleed 3Y + 2 (1to1k), dilution 3,200): 0.151 and 0.130 | ELISA absorbance of sera (bleed 3Y + 2 (1to1k), dilution 6,400): 0.077 | ELISA absorbance of sera (bleed 3Y + 3 (1to1k), dilution 100): 1.269 and 1.387 | ELISA absorbance of sera (bleed 3Y + 3 (1to1k), dilution 200): 0.919 and 1.048 | ELISA absorbance of sera (bleed 3Y + 3 (1to1k), dilution 400): 0.666 and 0.772 | ELISA absorbance of sera (bleed 3Y + 3 (1to1k), dilution 800): 0.418 and 0.430 | ELISA absorbance of sera (bleed 3Y + 3 (1to1k), dilution 1,600): 0.246 and 0.257 | ELISA absorbance of sera (bleed 3Y + 3 (1to1k), dilution 3,200): 0.081 and 0.119 | ELISA absorbance of sera (bleed 3Y + 3 (1to1k), dilution 6,400): 0.025
